Test results reported in the supplement of paper PMC10307832.

Assays:
Assay in all cases: relative viability (nuclei count vs DMSO), 5 days (fraction); higher = more cells survive
Nilotinib = compound: Cc1cn(-c2cc(NC(=O)c3ccc(C)c(Nc4nccc(-c5cccnc5)n4)c3)cc(C(F)(F)F)c2)cn1 [Nilotinib]
How it was run: (§1)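 Hoechst staining, done together with fixation and permeabilisation, marked nuclei for 4× imaging and MetaXpress counting. This followed 5 days without medium change after lung cancer cell lines, kept overnight at 37 °C in 1536-well plates, were pinned with five library-drug doses (not always all listed) spaced by √10 on vehicle-anchored plates. Viability is the ratio of treated-well to vehicle-well nuclei, expressed as a median across plates. Plates passed only at control CV below 25% with at least one doubling.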

Lenalidomide = compound: Nc1cccc2c1CN(C1CCC(=O)NC1=O)C2=O [Lenalidomide]
How it was run: as §1

Saracatinib = compound: CN1CCN(CCOc2cc(OC3CCOCC3)c3c(Nc4c(Cl)ccc5c4OCO5)ncnc3c2)CC1 [Saracatinib]
How it was run: as §1

MIM1 = compound: CC1=CSC(=NC2CCCCC2)N1/N=C/C3=C(C(=C(C=C3)O)O)O [MIM1]
How it was run: as §1

Luminespib = compound: CCNC(=O)c1noc(-c2cc(C(C)C)c(O)cc2O)c1-c1ccc(CN2CCOCC2)cc1 [Luminespib]
How it was run: as §1

Cell Line | relative viability (Nilotinib; 0.001 µM) | relative viability (Nilotinib; 0.003162 µM) | relative viability (Nilotinib; 0.01 µM) | relative viability (Nilotinib; 0.03162 µM) | relative viability (Nilotinib; 0.1 µM) | relative viability (Lenalidomide; 0.253 µM) | relative viability (Lenalidomide; 0.8 µM) | relative viability (Lenalidomide; 2.53 µM) | relative viability (Lenalidomide; 8 µM) | relative viability (Saracatinib; 0.02 µM) | relative viability (Saracatinib; 0.2 µM) | relative viability (Saracatinib; 0.6325 µM) | relative viability (Saracatinib; 2 µM) | relative viability (MIM1; 0.2 µM) | relative viability (MIM1; 0.6325 µM) | relative viability (MIM1; 2 µM) | relative viability (MIM1; 6.325 µM) | relative viability (MIM1; 20 µM) | relative viability (Luminespib; 0.002 µM) | relative viability (Luminespib; 0.006325 µM) | relative viability (Luminespib; 0.01 µM, anchor plate) | relative viability (Luminespib; 0.02 µM) | relative viability (Luminespib; 0.06325 µM) | relative viability (Luminespib; 0.2 µM)
SW 1573 | 0.906 | 1.2 | 1.12 | 0.737 | 0.66 | 0.914 | 1.01 | 1.08 | 0.925 | 0.931 | 0.785 | 0.877 | 0.729 | 1.1 | 0.966 | 0.976 | 0.763 | 0.488 | 1.04 | 0.976 | 0.217 | 0.595 | 0.108 | 0.107
UMC-11 | 0.934 | 1.09 | 1.15 | 0.686 | 0.863 | 0.999 | 0.846 | 1.09 | 0.778 | 0.971 | 0.729 | 1.02 | 0.807 | 0.962 | 0.725 | 1.08 | 0.747 | 0.284 | 0.962 | 0.976 | 1.03 | 0.471 | 0.587 | 0.221
